Data on one compound can be found in ChEMBL document CHEMBL5537197, “Discovery of Novel Coumarin-quinolinium Derivatives as Pan-KRAS Translation Inhibitors by Targeting 5'-UTR RNA G-Quadruplexes” (J Med Chem, 2024).

Series [1] has as its system PANC-1. Kind of series: Cytotoxicity against human PANC-1 cells harboring KRAS G12D mutant assessed as cell growth inhibition incubated for 24 hrs by MTT assay. The class given is functional, cell-based. The following applies: PANC-1, 24 h. A general note: Tetrazolium dyes change colour on reduction, which living cells bring about.
Series [2] in a line: Cytotoxicity against human PANC-1 cells […] assessed as cell growth inhibition incubated for 24 hrs by MTT assay. The class given is functional, cell-based. The conditions noted are these: PANC-1, 24 h.
A further series deals with NCM460. Put plainly: Cytotoxicity against human NCM460 cells harboring wild-type KRAS assessed as cell growth inhibition incubated for 24 hrs by MTT assay. The class given is functional, cell-based. The conditions noted are these: NCM460, 24 h.
The target of series [3] is GTPase KRas (Homo sapiens) (UniProt P01116). Kind of series: Inhibition of KRAS in human PANC-1 cells at 2.5 uM incubated for 24 hrs by Western blot analysis. It is filed as cell-based. Background: Immunoblotting shows a protein as a band on a membrane.
Sequence of GTPase KRas (Homo sapiens) (P01116 whole entry, looked up): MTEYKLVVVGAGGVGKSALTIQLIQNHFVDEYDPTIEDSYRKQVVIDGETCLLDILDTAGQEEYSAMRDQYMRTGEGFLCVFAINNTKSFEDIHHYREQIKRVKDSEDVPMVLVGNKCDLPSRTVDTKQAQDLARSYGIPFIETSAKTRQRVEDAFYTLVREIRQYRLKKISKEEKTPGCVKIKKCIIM
Another series concerns SW-620. Kind of series: Cytotoxicity against human SW620 cells harboring KRAS G12V mutant assessed as cell growth inhibition incubated for 24 hrs by MTT assay. It is filed as functional, cell-based. The following applies: SW-620, 24 h.
In the next series the test system is HCT-116. Kind of series: Cytotoxicity against human HCT-116 cells harboring KRAS G13D mutant assessed as cell growth inhibition incubated for 24 hrs by MTT assay. The following applies: HCT-116, 24 h. The class given is functional, cell-based.
Series [4] in a line: Cytotoxicity against human LX2 cells harboring wild-type KRAS assessed as cell growth inhibition incubated for 24 hrs by MTT assay. It is filed as toxicity, cell-based, LX-2.
For series [5], the system named is GTPase KRas (Homo sapiens), P01116 [G12D]. Kind of series: Inhibition of KRAS G12D mutant in human PANC-1 cells incubated for 24 hrs by Western blot analysis. The class given is cell-based. The conditions noted are these: dose <= 5.0 µM.
Sequence of GTPase KRas (Homo sapiens), P01116 [G12D] (P01116 whole entry G12D, looked up): as the sequence (P01116 whole entry, looked up) above, with G12D counted along it
In series [6] the test system is PANC-1. Kind of series: Effect on NRAS level in human PANC-1 cells harboring KRAS G12D mutant at 1.25 to 5 uM by Western blot analysis. The class given is functional, cell-based. The conditions noted are these: dose 1.25-5 µM.
Series [7] concerns PANC-1. Put plainly: Effect on KRAS mRNA level in human PANC-1 cells harboring KRAS G12D mutant at upto 5 uM incubated upto 48 hrs by RT-qPCR analysis. It is filed as functional, cell-based. (In qPCR the cycle at which signal appears reflects the starting amount.)
In series [8] the target is Quadruplex DNA. Put plainly: Binding affinity to KRAS utr-1 G-Quadruplex (unknown origin) assessed as dissociation constant by fluorescence spectroscopy. The class given is nucleic-acid assay.
Series [9] deals with Quadruplex DNA. Kind of series: Binding affinity to KRAS utr-z G-Quadruplex (unknown origin) assessed as dissociation constant by fluorescence spectroscopy. It is filed as nucleic-acid assay.
The subject of series [10] is Quadruplex DNA. Put plainly: Binding affinity to TERRA G-Quadruplex (unknown origin) assessed as melting temperature at 25 uM at 25 to 95 degreeC by CD spectroscopy (reference value: 84.2 degreeC). The class given is nucleic-acid assay.
The test system of series [11] is Quadruplex DNA. Put plainly: Disruption of DHX36/KRAS rG-Quadruplex (unknown origin) by ELISA. The class given is nucleic-acid assay. The conditions noted are these: dose 20.0 µM.
Series [12] concerns the target GTPase KRas (Homo sapiens) (UniProt P01116). Kind of series: Inhibition of KRAS in human MIA PaCa-2 cells assessed as decrease in total protein level at 1.25 to 5 uM incubated for 24 hrs by Western blot analysis. The class given is cell-based. The conditions noted are these: dose 1.25-5 µM.
The target is the same in series [13]. Put plainly: Inhibition of KRAS in human MIA PaCa-2 cells assessed as decrease in ERK phosphorylation incubated for 24 hrs by Western blot analysis. It is filed as cell-based. The conditions noted are these: dose 1.25-5 µM.
Series [14] shares this target. Kind of series: Inhibition of KRAS in human MIA PaCa-2 cells assessed as decrease in MEK phosphorylation at 2.5 uM by Western blot analysis. It is filed as cell-based. The conditions noted are these: time <= 24.0 hrs, TDE = time-dependent effect.
The target is the same in series [15]. Put plainly: Inhibition of KRAS in human MIA PaCa-2 cells assessed as decrease in mTOR phosphorylation at 2.5 uM by Western blot analysis. The class given is cell-based. The following applies: time <= 24.0 hrs, TDE = time-dependent effect.
Series [16] deals with MIA PaCa-2. Put plainly: Induction of cell cycle arrest at G2/M phase in human MIA PaCa-2 cells incubated for 24 hrs by PI staining based HCS analysis. It is filed as functional. The conditions noted are these: dose 1.25-5 µM.
Series [17] has as its system MIA PaCa-2. Put plainly: Antitumor activity against human MIA PaCa-2 cells xenografted in BALB/C-nu/nu mouse model assessed as decrease of tumor volume administered intraperitoneally everyday for 18 days. The class given is functional, cell-based. The conditions noted are these: dose 2.5-5 mg/kg, route ip, time 18.0 day.
Series [18] has as its system MIA PaCa-2. Put plainly: Antitumor activity against human MIA PaCa-2 cells xenografted in BALB/C-nu/nu mouse model assessed as tumor growth inhibition at 5 mg/kg,ip everyday for 18 days relative to control. It is filed as functional. The following applies: MIA PaCa-2, 432 h, time 18 day, read-out: TGI.
A short description of series [19]: Toxicity in BALB/C-nu/nu mouse model xenografted with human MIA PaCa-2 cells assessed as signs of distress at 2.5 to 5 mg/kg,ip everyday for 18 days. It is filed as organism-based. The conditions noted are these: in vivo, 432 h, dose 2.5-5 mg/kg, time 18 day.
Series [20] can be described thus: Toxicity in BALB/C-nu/nu mouse model xenografted with human MIA PaCa-2 cells assessed as signs of discomfort at 2.5 to 5 mg/kg,ip everyday for 18 days. The class given is organism-based. The conditions noted are these: in vivo, 432 h, dose 2.5-5 mg/kg, time 18 day.
Series [21] concerns MIA PaCa-2. Put plainly: In vivo inhibition of KRAS in human MIA PaCa-2 cells xenografted in BALB/C-nu/nu mouse model at 2.5 to 5 mg/kg,ip everyday for 18 days by IHC analysis. It is filed as functional, organism-based. The conditions noted are these: dose 2.5-5 mg/kg, time 18.0 day.

Calls of active or inactive are those of the source. The rule behind the calls is not given here.

In the case of `CCN(CC)c1ccc2cc(/C=C/c3ccc4cc(F)c(NCCN5CCCC5)cc4[n+]3C)c(=O)oc2c1.[I-]`, the IC50 (in general, the concentration at which inhibition is half-maximal) is 5.6 µM with PANC-1 [1]; more than 40 µM in series [2]; more than 40 µM in the series with NCM460; 5.1 µM in the series with SW-620; 4 µM with HCT-116. The inhibition result in [3] and in series [12] was “Active” throughout. In addition, the IC50 at 24 h in series [4] is more than 40 µM. Besides, the inhibition entry was “Dose-Dependent Effect” in series [5], “Dose-Dependent Effect” in series [13], “Tde” in series [14] and “Tde” in series [15]. In addition, the result in the series with PANC-1 [6] and with PANC-1 [7] was inactive. Further, the Kd – broadly, the free concentration of one partner at which half of the binding sites on the other are occupied at equilibrium, for simple one-to-one binding – came out at 0.9 µM at Quadruplex DNA [8] and 2.3 µM at Quadruplex DNA [9]. For the same compound, the Tm with Quadruplex DNA [10] stood at 81.2 °C. Further, the Activity result in the series with Quadruplex DNA [11] was “Dose-Dependent Effect”; with MIA PaCa-2 [16], “Dose-Dependent Effect”; in the series with MIA PaCa-2 [17], “Dose-Dependent Effect”; in [19], “Non-Toxic”; in [20], “Non-Toxic”. The inhibition in vivo at 5 mg/kg in the series with MIA PaCa-2 [18] came to 70.3%. In addition, the result with MIA PaCa-2 [21] was Active.
